Laboratory results taken from ChEMBL document CHEMBL5052831, “Serpin inhibitors for the treatment of prion and prion-like diseases” (2021).

What follows are compounds tested on ScGT1 (assay: Inhibition of SERPINA3N in mouse GT1 cells chronically infected with RML prion (ScGT1) assessed as reduction of PrPSc levels measured by western blot analysis).
Format: cell-based
Set-up: concentration or dose not given beside the values
Compound `Cc1n[nH]c(C)c1CNC(=O)c1cnn(-c2ccc(F)cc2)c1` has an Activity of 50%.
`Cc1ccc(-n2ncc(C(=O)C3CCN(C(=O)c4scnc4C)CC3)c2N)cc1` was tested, and the Activity was 50%.
`Nc1c(C(=O)C2CCN(C(=O)c3ccno3)CC2)cnn1-c1ccccc1` gave an Activity of 50%.
With `O=C(NC1CCCOC1)c1cnn(-c2ccc(F)cc2)c1` (configuration not stated) the Activity was 50%.
Work on `Cc1ccc(-n2ncc(C(=O)C3CCN(C(=O)C4CCC4)C3)c2N)cc1` (configuration not stated) yielded an Activity of 50%.
In the case of `CC(=O)N1CCC(C(=O)c2cnn(-c3cccc(F)c3)c2N)CC1`, the Activity was 50%.
`Nc1c(C(=O)c2c[nH]c3ccccc23)cnn1-c1ccccc1` gave an Activity of 50%.
